{"source": "patent US20110166109A1", "about": "“Synergistic Active Compound Combinations Comprising Phenyltriazoles” (Bayer CropScience AG, priority 2009, published 2011)", "format_in_all_cases": "in vivo", "key": {"Tetranychus urticae": {"system": "Tetranychus urticae", "assay": "Tetranychus test (OP-resistant/spray treatment), bean leaf discs", "method": "(§1) To produce a suitable preparation of active compound, 1 part by weight of active compound is mixed with the stated amounts of solvent and emulsifier, and the concentrate is diluted with emulsifier-containing water to the desired concentration.\nDiscs of bean leaves (Phaseolus vulgaris) which are infested by all stages of the greenhouse red spidermite (Tetranychus urticae) are sprayed with an active compound preparation of the desired concentration.\nAfter the desired period of time, the effect in % is determined. 100% means that all spider mites have been killed; 0% means that none of the spider mites have been killed."}, "Phaedon cochleariae": {"system": "Phaedon cochleariae", "assay": "Phaedon cochleariae larvae test (treated cabbage leaves)", "conditions": "applied individually; for pest or weed control at 500 g/ha / pest or weed control at 100 g/ha / pest or weed control at 200 g/ha: Phaedon cochleariae, 144 h, after 6 d, read-out: Kill in % after 6d"}, "Myzus persicae": {"system": "Myzus persicae", "assay": "Myzus persicae test (spray treatment of infested cabbage leaves)", "conditions": "applied individually", "method": "as §1\nCabbage leaves (Brassica oleracea) which are heavily infested by the green peach aphid (Myzus persicae) are treated by spraying with the active compound preparation of the desired concentration.\nAfter the desired period of time, the kill in % is determined. 100% means that all of the aphids have been destroyed; 0% means that none of the aphids have been destroyed. The kill rates determined are entered into Colby's formula."}, "Spodoptera frugiperda": {"system": "Spodoptera frugiperda", "assay": "Spodoptera frugiperda larvae test (sprayed cabbage leaves)", "conditions": "applied individually", "method": "as §1\nCabbage leaves (Brassica okracea) are treated by being sprayed with the preparation of active compound of the desired concentration and are populated with larvae of the armyworm (Spodoptera frugiperda) while the leaves are still moist.\nAfter the desired period of time, the kill in % is determined. 100% means that all caterpillars have been killed; 0% means that none of the caterpillars have been killed. The kill rates determined are entered into Colby's formula."}, "[1]": {"conditions": "Tetranychus urticae, foliar, 144 h, 500 g/ha, after 6 d, applied individually, read-out: Kill in % after 6d"}, "[2]": {"conditions": "Tetranychus urticae, foliar, 144 h, read-out: Kill in % after 6d"}}, "note": "Like-named read-outs stand apart in the source and are kept apart here.", "data": [{"smiles": "Cc1nn(C)c(F)c1C(=O)Nc1ccccc1C(C)CC(C)C", "note": "(centres unmarked) [(6-18), N-[2-(1,3-dimethylbutyl)phenyl]-5-fluoro-1,3-dimethyl-1H-pyrazole-4-carboxamide]", "values": [{"measurement": "Kill in % after 1d", "setting": "Tetranychus urticae; 500 g/ha, applied individually", "value": 0, "unit": "%"}, {"measurement": "pest or weed control at 500 g/ha", "setting": "Tetranychus urticae; [1]", "value": 0, "unit": "%"}, {"measurement": "pest or weed control at 500 g/ha", "setting": "Phaedon cochleariae; 500 g/ha", "value": 0, "unit": "%"}]}, {"smiles": "Cc1cc(C)c([S+]([O-])CC(F)(F)F)cc1-n1cnc(C(F)(F)F)n1", "note": "(centres unmarked) [(I-1)]", "values": [{"measurement": "Kill in % after 1d", "setting": "Tetranychus urticae; 0.16 g/ha, applied individually", "value": 0, "unit": "%"}, {"measurement": "pest or weed control at 0.16 g/ha", "setting": "Tetranychus urticae; Tetranychus urticae, foliar, 144 h, 0.16 g/ha, after 6 d, applied individually, read-out: Kill in % after 6d", "value": 0, "unit": "%"}, {"measurement": "pest or weed control at 0.8 g/ha", "setting": "Tetranychus urticae; Tetranychus urticae, foliar, 144 h, 0.8 g/ha, after 6 d, applied individually, read-out: Kill in % after 6d", "value": 60, "unit": "%"}, {"measurement": "pest or weed control at 100 g/ha", "setting": "Phaedon cochleariae", "value": 0, "unit": "%"}, {"measurement": "Kill in % after 6d", "setting": "Myzus persicae; 20 g/ha", "value": 0, "unit": "%"}]}, {"smiles": "CO/C=C(/C(=O)OC)c1ccccc1Oc1cc(Oc2ccccc2C#N)ncn1", "note": "[azoxystrobin]", "values": [{"measurement": "pest or weed control at 500 g/ha", "setting": "Phaedon cochleariae; 500 g/ha", "value": 17, "unit": "%"}]}, {"smiles": "CC(C)(C)C(O)C(Oc1ccc(-c2ccccc2)cc1)n1cncn1", "note": "(centres unmarked) [bitertanol]", "values": [{"measurement": "pest or weed control at 500 g/ha", "setting": "Phaedon cochleariae; 500 g/ha", "value": 0, "unit": "%"}]}, {"smiles": "Cn1cc(C(=O)Nc2ccc(F)cc2-c2ccc(Cl)c(Cl)c2)c(C(F)F)n1", "note": "[bixafen, N-(3′,4′-dichloro-5-fluoro[1,1′-biphenyl]-2-yl)-3-(difluoromethyl)-1-methyl-1H-pyrazole-4-carboxamide]", "values": [{"measurement": "Kill in % after 1d", "setting": "Tetranychus urticae; 200 g/ha, applied individually", "value": 0, "unit": "%"}, {"measurement": "pest or weed control at 500 g/ha", "setting": "Phaedon cochleariae; 500 g/ha", "value": 0, "unit": "%"}]}, {"smiles": "COC(=O)Nc1nc2ccccc2[nH]1", "note": "[carbendazim]", "values": [{"measurement": "Kill in % after 6d", "setting": "Myzus persicae; 500 g/ha", "value": 20, "unit": "%"}]}, {"smiles": "CCC1(C(=O)NC(C)c2ccc(Cl)cc2)C(C)C1(Cl)Cl", "note": "(centres unmarked) [carpropamid]", "values": [{"measurement": "Kill in % after 6d", "setting": "Spodoptera frugiperda; 500 g/ha", "value": 0, "unit": "%"}, {"measurement": "pest or weed control at 500 g/ha", "setting": "Phaedon cochleariae; 500 g/ha", "value": 0, "unit": "%"}]}, {"smiles": "Cc1cc(F)c(-n2nc(C(F)(F)F)nc2N)cc1[S+]([O-])CC(F)(F)F", "note": "(centres unmarked) [compound (I-4)]", "values": [{"measurement": "Kill in % after 6d", "setting": "Spodoptera frugiperda; 100 g/ha", "value": 0, "unit": "%"}, {"measurement": "pest or weed control at 4 g/ha", "setting": "Tetranychus urticae; Tetranychus urticae, foliar, 144 h, 4 g/ha, after 6 d, applied individually, read-out: Kill in % after 6d", "value": 70, "unit": "%"}, {"measurement": "pest or weed control at 20 g/ha", "setting": "Tetranychus urticae; Tetranychus urticae, foliar, 144 h, 20 g/ha, after 6 d, applied individually, read-out: Kill in % after 6d", "value": 80, "unit": "%"}, {"measurement": "pest or weed control at 100 g/ha", "setting": "Phaedon cochleariae", "value": 0, "unit": "%"}, {"measurement": "Kill in % after 1d", "setting": "Myzus persicae; 100 g/ha", "value": 0, "unit": "%"}]}, {"smiles": "CSC1=N[C@@](C)(c2ccccc2)C(=O)N1Nc1ccccc1", "note": "[fenamidone]", "values": [{"measurement": "Kill in % after 6d", "setting": "Spodoptera frugiperda; 500 g/ha", "value": 0, "unit": "%"}, {"measurement": "pest or weed control at 500 g/ha", "setting": "Tetranychus urticae; [2]", "value": 0, "unit": "%"}, {"measurement": "pest or weed control at 500 g/ha", "setting": "Phaedon cochleariae; 500 g/ha", "value": 0, "unit": "%"}]}, {"smiles": "N#Cc1c[nH]cc1-c1cccc2c1OC(F)(F)O2", "note": "[fludioxonil]", "values": [{"measurement": "pest or weed control at 200 g/ha", "setting": "Tetranychus urticae; [2]", "value": 0, "unit": "%"}, {"measurement": "pest or weed control at 200 g/ha", "setting": "Phaedon cochleariae", "value": 33, "unit": "%"}]}, {"smiles": "O=C(NCc1ncc(C(F)(F)F)cc1Cl)c1c(Cl)cccc1Cl", "note": "[fluopicolide, fluopicolid]", "values": [{"measurement": "pest or weed control at 500 g/ha", "setting": "Tetranychus urticae; [1]", "value": 0, "unit": "%"}, {"measurement": "Kill in % after 6d", "setting": "Phaedon cochleariae; 500 g/ha", "value": 0, "unit": "%"}, {"measurement": "pest or weed control at 500 g/ha", "setting": "Phaedon cochleariae; 500 g/ha", "value": 0, "unit": "%"}]}, {"smiles": "O=C(NCCc1ncc(C(F)(F)F)cc1Cl)c1ccccc1C(F)(F)F", "note": "[fluopyram, N-[2-[3-chloro-5-(trifluoromethyl)-2-pyridinyl]ethyl]-2-(trifluoromethyl)benzamide]", "values": [{"measurement": "Kill in % after 6d", "setting": "Spodoptera frugiperda; 500 g/ha", "value": 0, "unit": "%"}, {"measurement": "pest or weed control at 500 g/ha", "setting": "Tetranychus urticae; [2]", "value": 0, "unit": "%"}, {"measurement": "pest or weed control at 500 g/ha", "setting": "Phaedon cochleariae; 500 g/ha", "value": 0, "unit": "%"}]}, {"smiles": "CO/N=C(/C1=NOCCO1)c1ccccc1Oc1ncnc(Oc2ccccc2Cl)c1F", "note": "[fluoxastrobin]", "values": [{"measurement": "pest or weed control at 500 g/ha", "setting": "Tetranychus urticae; [2]", "value": 0, "unit": "%"}, {"measurement": "pest or weed control at 500 g/ha", "setting": "Phaedon cochleariae; 500 g/ha", "value": 33, "unit": "%"}]}, {"smiles": "O=c1c2cc(F)ccc2nc(-n2cncn2)n1-c1ccc(Cl)cc1Cl", "note": "[fluquincoazole, fluquinconazole]", "values": [{"measurement": "pest or weed control at 500 g/ha", "setting": "Tetranychus urticae; [2]", "value": 0, "unit": "%"}, {"measurement": "pest or weed control at 500 g/ha", "setting": "Phaedon cochleariae; 500 g/ha", "value": 17, "unit": "%"}]}, {"smiles": "CC(C)C1CCC(Cc2ccc(Cl)cc2)C1(O)Cn1cncn1", "note": "(centres unmarked) [ipconazole]", "values": [{"measurement": "pest or weed control at 500 g/ha", "setting": "Phaedon cochleariae; 500 g/ha", "value": 0, "unit": "%"}]}, {"smiles": "N#Cc1ccccc1NC(=O)c1snc(Cl)c1Cl", "note": "[isotianil]", "values": [{"measurement": "pest or weed control at 500 g/ha", "setting": "Phaedon cochleariae; 500 g/ha", "value": 0, "unit": "%"}]}, {"smiles": "COCC(=O)N(c1c(C)cccc1C)C(C)C(=O)OC", "note": "(centres unmarked) [metalaxyl]", "values": [{"measurement": "Kill in % after 1d", "setting": "Tetranychus urticae; 500 g/ha, applied individually", "value": 0, "unit": "%"}, {"measurement": "pest or weed control at 500 g/ha", "setting": "Tetranychus urticae; [2]", "value": 0, "unit": "%"}]}, {"smiles": "CNC(=O)/C(=N/OC)c1ccccc1Oc1ccccc1", "note": "[metominostrobin]", "values": [{"measurement": "pest or weed control at 500 g/ha", "setting": "Tetranychus urticae; [2]", "value": 0, "unit": "%"}]}, {"smiles": "O=C(Nc1ccccc1)N(Cc1ccc(Cl)cc1)C1CCCC1", "note": "[pencycuron]", "values": [{"measurement": "pest or weed control at 500 g/ha", "setting": "Phaedon cochleariae; 500 g/ha", "value": 0, "unit": "%"}]}, {"smiles": "CCCOC(=O)NCCCN(C)C", "note": "[propamocarb]", "values": [{"measurement": "Kill in % after 1d", "setting": "Tetranychus urticae; 500 g/ha, applied individually", "value": 0, "unit": "%"}, {"measurement": "pest or weed control at 500 g/ha", "setting": "Tetranychus urticae; [1]", "value": 0, "unit": "%"}, {"measurement": "pest or weed control at 200 g/ha", "setting": "Phaedon cochleariae", "value": 17, "unit": "%"}]}, {"smiles": "OC(Cc1ccccc1Cl)(Cn1ncnc1S)C1(Cl)CC1", "note": "(centres unmarked) [prothioconazole]", "values": [{"measurement": "Kill in % after 6d", "setting": "Spodoptera frugiperda; 500 g/ha", "value": 0, "unit": "%"}, {"measurement": "pest or weed control at 200 g/ha", "setting": "Tetranychus urticae; [2]", "value": 0, "unit": "%"}, {"measurement": "pest or weed control at 500 g/ha", "setting": "Phaedon cochleariae; 500 g/ha", "value": 0, "unit": "%"}]}, {"smiles": "CCCN(CC)CC1COC2(CCC(C(C)(C)C)CC2)O1", "note": "(centres unmarked) [spiroxamine]", "values": [{"measurement": "pest or weed control at 200 g/ha", "setting": "Tetranychus urticae; [2]", "value": 0, "unit": "%"}]}, {"smiles": "CC(C)(C)C(O)(CCc1ccc(Cl)cc1)Cn1cncn1", "note": "(centres unmarked) [tebuconazole]", "values": [{"measurement": "Kill in % after 6d", "setting": "Spodoptera frugiperda; 500 g/ha", "value": 0, "unit": "%"}, {"measurement": "pest or weed control at 200 g/ha", "setting": "Tetranychus urticae; [2]", "value": 0, "unit": "%"}, {"measurement": "pest or weed control at 500 g/ha", "setting": "Phaedon cochleariae; 500 g/ha", "value": 0, "unit": "%"}]}, {"smiles": "Cc1ccc(N(SC(F)(Cl)Cl)S(=O)(=O)N(C)C)cc1", "note": "[tolyfluanid, tolylfluanid]", "values": [{"measurement": "pest or weed control at 500 g/ha", "setting": "Phaedon cochleariae; 500 g/ha", "value": 0, "unit": "%"}]}, {"smiles": "CC(C)(C)C(O)C(Oc1ccc(Cl)cc1)n1cncn1", "note": "(centres unmarked) [triadimenol]", "values": [{"measurement": "Kill in % after 6d", "setting": "Spodoptera frugiperda; 500 g/ha", "value": 0, "unit": "%"}, {"measurement": "pest or weed control at 200 g/ha", "setting": "Tetranychus urticae; [2]", "value": 0, "unit": "%"}, {"measurement": "pest or weed control at 500 g/ha", "setting": "Phaedon cochleariae; 500 g/ha", "value": 0, "unit": "%"}]}, {"smiles": "CO/N=C(/C(=O)OC)c1ccccc1CO/N=C(\\C)c1cccc(C(F)(F)F)c1", "note": "[trifloxystrobin]", "values": [{"measurement": "pest or weed control at 500 g/ha", "setting": "Tetranychus urticae; [2]", "value": 0, "unit": "%"}, {"measurement": "pest or weed control at 200 g/ha", "setting": "Phaedon cochleariae", "value": 17, "unit": "%"}, {"measurement": "pest or weed control at 500 g/ha", "setting": "Phaedon cochleariae; 500 g/ha", "value": 0, "unit": "%"}, {"measurement": "Kill in % after 1d", "setting": "Myzus persicae; 500 g/ha", "value": 70, "unit": "%"}]}]}
